# In ChEMBL document CHEMBL3301562, “MMV Box screening against Plasmodium falciparum protein kinases and aminoacyl tRNA synthetases”:
# Key:
# Type in all cases: functional
# [1] = biological target: T1, Putative uncharacterized protein pk7 (Plasmodium falciparum, UniProt O96214); test: Final concentrations were 1 uM ATP, 2 mM DTT, 20 mM MgCl2, 2 mM MnCl2, 0.01% BSA, and 6 ug/ml PK7, in a buffer of 20 mM Tris-HCl (pH 7.5). The enzyme itself was the only substrate present (since autophosphorylation occurs); 100 uM 1NA-PP1 was used as a control inhibitor. Incubation time was 3 hours.
# T1 sequence (O96214 whole entry): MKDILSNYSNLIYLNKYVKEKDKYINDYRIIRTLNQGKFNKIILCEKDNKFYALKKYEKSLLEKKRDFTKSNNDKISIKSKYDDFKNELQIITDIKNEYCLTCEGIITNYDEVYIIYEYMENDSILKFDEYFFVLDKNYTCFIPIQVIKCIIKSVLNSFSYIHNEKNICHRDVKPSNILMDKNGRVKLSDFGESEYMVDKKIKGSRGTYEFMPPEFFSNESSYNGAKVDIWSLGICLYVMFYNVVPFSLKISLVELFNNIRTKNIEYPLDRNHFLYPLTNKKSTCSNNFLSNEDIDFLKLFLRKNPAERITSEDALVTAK
# [2] = biological target: T2, Proline--tRNA ligase (Plasmodium falciparum (isolate 3D7), UniProt Q8I5R7); test: MMV: ProRS recombinant Plasmodium falciparum Prolyl-tRNA-synthetase, assay with yeast tRNA, ATP, and proline and 3 uM MMV malaria box compound, assay read out with kinase glo as % inhibition.
# T2 sequence (Q8I5R7 whole entry): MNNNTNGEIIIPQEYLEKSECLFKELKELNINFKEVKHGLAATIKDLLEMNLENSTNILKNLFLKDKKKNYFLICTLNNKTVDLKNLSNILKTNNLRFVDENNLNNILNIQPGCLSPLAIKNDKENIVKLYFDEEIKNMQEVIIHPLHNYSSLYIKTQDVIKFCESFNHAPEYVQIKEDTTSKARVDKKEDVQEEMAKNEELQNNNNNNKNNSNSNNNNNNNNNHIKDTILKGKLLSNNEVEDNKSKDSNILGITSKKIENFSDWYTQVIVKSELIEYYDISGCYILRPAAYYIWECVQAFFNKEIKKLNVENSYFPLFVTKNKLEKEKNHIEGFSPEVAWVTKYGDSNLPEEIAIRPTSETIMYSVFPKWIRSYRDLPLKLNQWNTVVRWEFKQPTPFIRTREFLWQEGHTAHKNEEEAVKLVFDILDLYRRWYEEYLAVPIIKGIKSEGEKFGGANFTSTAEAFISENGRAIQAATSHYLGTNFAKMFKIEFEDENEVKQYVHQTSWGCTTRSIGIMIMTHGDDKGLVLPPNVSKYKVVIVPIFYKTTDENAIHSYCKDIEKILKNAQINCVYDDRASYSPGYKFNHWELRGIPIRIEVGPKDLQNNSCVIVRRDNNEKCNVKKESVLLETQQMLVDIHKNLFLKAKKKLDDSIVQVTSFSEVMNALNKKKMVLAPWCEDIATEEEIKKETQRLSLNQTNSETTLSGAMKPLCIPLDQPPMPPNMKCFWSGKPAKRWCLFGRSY
# [3] = biological target: Calcium-dependent protein kinase 1 (Plasmodium falciparum, UniProt P62344); test: MMV: CDPK1 Protein kinase inhibition assay using recombinant PfCDPK1, syntide 2 peptide substrate, ATP and KinaseGlo to measure % inhibition at 1 uM MMV box compound.
# [4] = biological target: T3, Cdk-related protein kinase 6 (Plasmodium falciparum, UniProt O77239); test: Final concentrations were 1.5 uM ATP, 5 mM MnCl2, and 15 ug/ml PK6 in a buffer of 100 mM Tris-HCl (pH 7.5). 50 ug/mL MBP was provided as the substrate; 10 uM staurosporine was used as a control inhibitor. Incubation time was 3 hours and 40 minutes.The catalytic activity of each kinase was considered proportional to ATP consumed, as determined from measurements of residual [ATP] with the luciferase-based reagent Kinase-Glo (Promega) following incubation. Luminescence (proportional to residual [ATP]) was measured on the plate readers FLx800 (BioTek Instruments, Winooski, VT, USA) and MicroBeta2.
# T3 sequence (O77239 whole entry): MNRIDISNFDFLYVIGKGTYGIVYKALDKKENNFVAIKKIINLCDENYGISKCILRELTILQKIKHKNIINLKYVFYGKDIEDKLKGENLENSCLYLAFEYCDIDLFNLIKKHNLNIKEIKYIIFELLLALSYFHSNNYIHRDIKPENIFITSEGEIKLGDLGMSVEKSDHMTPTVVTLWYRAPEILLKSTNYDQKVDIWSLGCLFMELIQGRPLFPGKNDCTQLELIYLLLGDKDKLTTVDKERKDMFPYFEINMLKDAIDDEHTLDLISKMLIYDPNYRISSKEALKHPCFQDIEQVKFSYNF
# [5] = biological target: T4, Mitogen-activated protein kinase (Plasmodium falciparum, UniProt Q25917); test: Final concentrations were 1 uM ATP, 0.5 mM DTT, 1 mM MgCl2, 0.5 mg/mL BSA, and 10 ug/ml MAP2 in a buffer of 50 mM HEPES (pH 7.0). 0.5 mg/mL histone III-S served as the substrate (13); 100 uM AMP-PNP, an ATP analog, was used as a control inhibitor. Incubation time was 4 hours.
# T4 sequence (Q25917 whole entry): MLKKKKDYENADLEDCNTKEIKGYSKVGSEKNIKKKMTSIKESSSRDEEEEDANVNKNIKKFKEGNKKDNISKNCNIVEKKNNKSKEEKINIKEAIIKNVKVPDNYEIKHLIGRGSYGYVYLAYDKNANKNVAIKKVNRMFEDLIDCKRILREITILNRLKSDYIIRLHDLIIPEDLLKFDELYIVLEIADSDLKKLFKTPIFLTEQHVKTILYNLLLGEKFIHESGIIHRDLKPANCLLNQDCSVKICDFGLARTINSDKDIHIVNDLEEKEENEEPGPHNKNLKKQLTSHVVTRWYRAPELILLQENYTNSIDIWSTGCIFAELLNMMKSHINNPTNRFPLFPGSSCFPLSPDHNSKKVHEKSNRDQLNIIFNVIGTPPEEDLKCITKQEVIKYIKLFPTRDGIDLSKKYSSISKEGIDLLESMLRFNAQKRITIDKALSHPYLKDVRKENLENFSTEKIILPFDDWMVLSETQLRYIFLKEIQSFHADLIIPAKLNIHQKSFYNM
# [6] = biological target: T5, Calcium-dependent protein kinase 4 (Plasmodium falciparum (isolate 3D7), UniProt Q8IBS5); test: MMV: CDPK4 Protein kinase inhibition assay using recombinant PfCDPK4, syntide2 peptide substrate, ATP and KinaseGlo to measure % inhibition at 1 uM MMV box compound.
# T5 sequence (Q8IBS5 whole entry): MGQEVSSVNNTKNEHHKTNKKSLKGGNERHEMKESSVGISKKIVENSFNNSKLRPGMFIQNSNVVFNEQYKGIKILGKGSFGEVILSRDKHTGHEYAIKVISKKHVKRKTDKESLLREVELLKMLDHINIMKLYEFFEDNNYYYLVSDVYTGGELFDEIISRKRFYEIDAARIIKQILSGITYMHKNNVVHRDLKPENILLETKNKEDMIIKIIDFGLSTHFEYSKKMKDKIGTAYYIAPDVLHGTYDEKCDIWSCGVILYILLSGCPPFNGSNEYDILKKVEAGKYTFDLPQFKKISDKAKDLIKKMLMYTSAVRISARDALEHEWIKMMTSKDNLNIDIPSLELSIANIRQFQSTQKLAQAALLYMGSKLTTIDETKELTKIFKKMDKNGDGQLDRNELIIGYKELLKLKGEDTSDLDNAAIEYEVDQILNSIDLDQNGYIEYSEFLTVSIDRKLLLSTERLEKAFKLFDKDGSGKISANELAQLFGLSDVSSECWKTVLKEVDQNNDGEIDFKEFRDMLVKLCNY
# [7] = biological target: Lysine--tRNA ligase (Plasmodium falciparum (isolate 3D7), UniProt Q8IDJ8); test: MMV: KRS recombinant Plasmodium falciparum Lysyl-tRNA-synthetase, assay with yeast tRNA, ATP, and lysine and 3 uM MMV malaria box compound, assay read out with kinase glo as % inhibition.
# Sequence of Lysine--tRNA ligase (Q8IDJ8 whole entry): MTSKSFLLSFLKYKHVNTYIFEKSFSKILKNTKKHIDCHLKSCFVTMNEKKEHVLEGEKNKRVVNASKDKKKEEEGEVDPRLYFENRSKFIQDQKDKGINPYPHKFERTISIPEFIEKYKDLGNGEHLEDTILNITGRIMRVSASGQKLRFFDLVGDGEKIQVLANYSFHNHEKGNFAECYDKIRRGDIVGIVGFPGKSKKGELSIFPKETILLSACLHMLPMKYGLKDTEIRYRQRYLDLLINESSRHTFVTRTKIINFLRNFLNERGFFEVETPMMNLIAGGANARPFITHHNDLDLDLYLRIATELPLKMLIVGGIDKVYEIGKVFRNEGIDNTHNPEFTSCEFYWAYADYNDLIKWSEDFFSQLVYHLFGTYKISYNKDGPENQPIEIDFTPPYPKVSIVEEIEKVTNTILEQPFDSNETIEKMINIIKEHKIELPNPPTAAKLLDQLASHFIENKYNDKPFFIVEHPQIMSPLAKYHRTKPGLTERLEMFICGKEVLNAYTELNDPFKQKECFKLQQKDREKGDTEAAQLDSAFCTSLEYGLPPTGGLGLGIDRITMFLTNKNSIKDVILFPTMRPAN
# Sequence of Calcium-dependent protein kinase 1 (P62344 whole entry): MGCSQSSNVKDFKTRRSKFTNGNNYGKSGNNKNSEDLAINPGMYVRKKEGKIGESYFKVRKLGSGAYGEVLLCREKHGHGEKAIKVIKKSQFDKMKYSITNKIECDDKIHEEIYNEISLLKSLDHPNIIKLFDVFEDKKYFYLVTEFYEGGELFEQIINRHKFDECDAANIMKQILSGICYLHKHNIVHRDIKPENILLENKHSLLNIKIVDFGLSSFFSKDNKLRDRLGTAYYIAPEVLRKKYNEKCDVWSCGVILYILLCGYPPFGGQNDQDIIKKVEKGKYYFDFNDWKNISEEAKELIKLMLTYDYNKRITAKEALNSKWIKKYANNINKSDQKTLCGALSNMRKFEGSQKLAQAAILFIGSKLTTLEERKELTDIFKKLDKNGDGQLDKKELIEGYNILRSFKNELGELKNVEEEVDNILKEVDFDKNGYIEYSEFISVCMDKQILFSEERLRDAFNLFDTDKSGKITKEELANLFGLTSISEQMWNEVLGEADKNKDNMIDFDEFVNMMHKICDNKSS
Structure (SMILES),IC50 [1],IC50 [2],IC50 [3],IC50 [4],IC50 [5],IC50 [6],IC50 [7]
COc1ccc2nc(N)nc(C)c2c1,> 1000 nM,> 2500 nM,> 1000 nM,> 1000 nM,> 1000 nM,> 1000 nM,> 2500 nM
COc1ccc(N2CCN(C(CNC(=O)C3CCCCC3)c3ccc4c(c3)OCO4)CC2)cc1 (stereo not given),> 1000 nM,> 2500 nM,> 1000 nM,> 1000 nM,> 1000 nM,> 1000 nM,> 2500 nM
COc1cc(OC)cc(N2C(=O)N(Cc3ccc(C(C)(C)C)cc3)c3ccccc3S2(=O)=O)c1,> 1000 nM,> 2500 nM,> 1000 nM,> 1000 nM,> 1000 nM,> 1000 nM,> 2500 nM
CCCCOc1ccc(C(=O)Nc2cc(C)on2)cc1,> 1000 nM,> 2500 nM,> 1000 nM,> 1000 nM,> 1000 nM,> 1000 nM,> 2500 nM
CC(C)c1ccc(CNCC(O)c2ccccc2)cc1 (stereo not given),> 1000 nM,> 2500 nM,> 1000 nM,> 1000 nM,> 1000 nM,> 1000 nM,> 2500 nM
CCC(=O)Nc1nnc(Cc2ccc(OC)c(OC)c2)s1,> 1000 nM,> 2500 nM,> 1000 nM,> 1000 nM,> 1000 nM,> 1000 nM,> 2500 nM
COc1cccc(O)c1CN1CCC2(CCCN(Cc3ccc(F)cc3)C2)C1 (stereo not given),> 1000 nM,> 2500 nM,> 1000 nM,> 1000 nM,> 1000 nM,> 1000 nM,> 2500 nM
O=c1nc(C=Cc2ccc(Cl)cc2)oc2ccccc12,> 1000 nM,> 2500 nM,> 1000 nM,> 1000 nM,> 1000 nM,> 1000 nM,> 2500 nM
O=C(Nc1ccc(-c2nc3cc(NC(=O)c4ccc(Cl)cc4)ccc3[nH]2)cc1)c1ccc(Cl)cc1,> 1000 nM,> 2500 nM,> 1000 nM,> 1000 nM,> 1000 nM,> 1000 nM,> 2500 nM
COc1ccc(/C=C2/SC(=Nc3ccccc3)NC2=O)cc1,> 1000 nM,> 2500 nM,> 1000 nM,> 1000 nM,> 1000 nM,> 1000 nM,> 2500 nM
CCOC(=O)c1c(NC(=O)c2ccccc2)sc2c(O)c(CN(CC)CC)ccc12,> 1000 nM,> 2500 nM,> 1000 nM,> 1000 nM,> 1000 nM,> 1000 nM,> 2500 nM
CN(C)c1ccc(C=Cc2nc(=O)c3ccccc3o2)cc1,> 1000 nM,> 2500 nM,> 1000 nM,> 1000 nM,> 1000 nM,> 1000 nM,> 2500 nM
COc1cc2cc(C(=O)Nc3ccccc3)c(N)nc2cc1OC,> 1000 nM,> 2500 nM,> 1000 nM,> 1000 nM,> 1000 nM,> 1000 nM,> 2500 nM
CCCCc1c(CCC)c(=N)c2ccccc2n1C,> 1000 nM,> 2500 nM,> 1000 nM,> 1000 nM,> 1000 nM,> 1000 nM,> 2500 nM
OC1=C2C(=Nc3ccccc3SC2c2ccc(Br)cc2)c2ccccc21 (stereo not given),> 1000 nM,> 2500 nM,> 1000 nM,> 1000 nM,> 1000 nM,> 1000 nM,> 2500 nM
